target: T1, human CGT (Homo sapiens, UniProt Q16880); experiment: Assay 1: CGT Enzymatic Assay (RapidFire/MS/MS, 0.01% Tween 80); assay type: biochemical; conditions: Table 1, Compounds of Formula (I) and Formula (II); CGT enzymatic assay, C6-NBD-dihydro-galactosylceramide readout; read-out: IC50
T1 sequence (Q16880 21-541): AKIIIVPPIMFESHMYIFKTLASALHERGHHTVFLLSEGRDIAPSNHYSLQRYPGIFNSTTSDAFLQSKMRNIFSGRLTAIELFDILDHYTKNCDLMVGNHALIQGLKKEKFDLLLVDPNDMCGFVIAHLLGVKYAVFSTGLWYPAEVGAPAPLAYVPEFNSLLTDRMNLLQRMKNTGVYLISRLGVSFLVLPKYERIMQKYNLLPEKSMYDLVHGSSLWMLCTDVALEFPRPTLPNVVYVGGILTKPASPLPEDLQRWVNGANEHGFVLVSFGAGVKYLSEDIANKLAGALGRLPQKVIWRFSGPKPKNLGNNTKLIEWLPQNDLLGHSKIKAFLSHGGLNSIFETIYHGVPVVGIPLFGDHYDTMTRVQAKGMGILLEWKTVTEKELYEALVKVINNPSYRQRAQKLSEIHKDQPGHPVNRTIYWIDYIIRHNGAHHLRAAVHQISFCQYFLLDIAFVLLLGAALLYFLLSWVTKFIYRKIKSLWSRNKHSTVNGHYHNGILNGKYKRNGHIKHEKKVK

First: COc1ccc(N2C(=O)N(c3ccc(OC)cc3)C(O)(c3cccc(C#N)c3)C2(C)C)cc1 (stereo not shown) [Example 328, 3-(4-hydroxy-1,3-bis(4-methoxyphenyl)-5,5-dimethyl-2-oxoimidazolidin-4-yl)benzonitrile]
Second: CC1(C)N(c2ccc(Cl)cc2)C(=O)N(c2ccc(C#N)cc2)C1(O)c1cccc(C#N)c1 (stereo not shown) [Example 323, 3-(1-(4-chlorophenyl)-3-(4-cyanophenyl)-4-hydroxy-5,5-dimethyl-2-oxoimidazolidin-4-yl)benzonitrile]
The IC50 of the first is higher: 1 to 10 µM for the first, less than 1 µM for the second. The second is the more potent here.

`Cc1ccc(N2C(=O)N(c3ccc(Cl)cc3)C3(CCC3)C2(O)c2cccc(OC(F)(F)F)c2)cc1` (stereo not shown) [Example 333, 5-(4-chlorophenyl)-8-hydroxy-7-(p-tolyl)-8-(3-(trifluoromethoxy)phenyl)-5,7-diazaspiro[3.4]octan-6-one] and `Cc1ccc(N2C(=O)N(c3ccc(Cl)cc3)C(O)(c3cccc(C#N)c3)C23CCC3)cc1` (stereo not shown) [Example 316, 3-(7-(4-chlorophenyl)-8-hydroxy-6-oxo-5-(p-tolyl)-5,7-diazaspiro[3.4]octan-8-yl)benzonitrile] cannot be ordered by IC50: less than 1 µM for the first, less than 1 µM for the second.

First: CC1(C)N(c2ccc(C#N)cc2)C(=O)N(c2ccc(Cl)cc2)C1(O)c1cccc(OC(F)(F)F)c1 (stereo not shown) [Example 322, 4-(3-(4-chlorophenyl)-4-hydroxy-5,5-dimethyl-2-oxo-4-(3-(trifluoromethoxy)phenyl)imidazolidin-1-yl)benzonitrile]
Second: COC[C@]1(C)N(c2ccc(Cl)cc2)C(=O)N(c2ccc(Cl)cc2)[C@@]1(O)c1cccc(OC(F)(F)F)c1 [Compound 296-3, (4R,5S)-1,3-bis(4-chlorophenyl)-4-hydroxy-5-(methoxymethyl)-5-methyl-4-(3-(trifluoromethoxy)phenyl)imidazolidin-2-one]
The IC50 of the first is lower: less than 1 µM for the first, 1 to 10 µM for the second. The first is the more potent here.

Compound `CCCC1(C)N(c2ccc(Cl)cc2)C(=O)N(c2ccc(Cl)cc2)C1(O)c1cccc(C#N)c1` (stereo not shown) [Compound 291, 3-(1,3-bis(4-chlorophenyl)-4-hydroxy-5-methyl-2-oxo-5-propylimidazolidin-4-yl)benzonitrile] has an IC50 of less than 1 µM.

same assay, conditions: Table 1, Compounds of Formula (I) and Formula (II); CGT enzymatic assay; read-out: IC50

`O=C1N(c2ccc(Cl)cc2)C2(CC2)C(O)(c2cccc(C(F)(F)F)c2)N1c1ccc(Cl)cc1` (stereo not shown) [Example 225, 4,6-bis(4-chlorophenyl)-7-hydroxy-7-(3-(trifluoromethyl)phenyl)-4,6-diazaspiro[2.4]heptan-5-one] and `O=C1N(c2ccc(Cl)cc2)C2(CC2)C(O)(c2cccc(Cl)c2)N1c1ccc(Cl)cc1` (stereo not shown) [Example 228, 7-(3-chlorophenyl)-4,6-bis(4-chlorophenyl)-7-hydroxy-4,6-diazaspiro[24]heptan-5-one] cannot be ordered by IC50: less than 1 µM for the first, less than 1 µM for the second.

First: Cc1csc(C2(O)C(C)N(c3ccc(Br)cc3)C(=O)N2c2ccc(Br)cc2)c1 (stereo not shown) [Compound 97, 1,3-bis(4-bromophenyl)-4-hydroxy-5-methyl-4-(4-methylthiophen-2-yl)imidazolidin-2-one]
Second: O=C1N(c2ccc(Br)cc2)C(=O)C(O)(c2cccs2)N1c1ccc(Br)cc1 (stereo not shown) [Example 205, 1,3-bis(4-bromophenyl)-5-hydroxy-5-(thiophen-2-yl)imidazolidine-2,4-dione]
The IC50 of the first is lower: 1 to 10 µM for the first, 50 to 100 µM for the second. The first is the more potent here.

First: C[C@]1(c2ccccc2)C(O)N(c2ccc(Cl)cc2)C(=O)N1c1ccc(Cl)cc1 (single isomer, unassigned) [Example 223-1]
Second: Cc1cccc(C2(C)C(O)N(c3ccc(Cl)cc3)C(=O)N2c2ccc(Cl)cc2)c1 (stereo not shown) [Example 222, 1,3-bis(4-chlorophenyl)-5-hydroxy-4-methyl-4-(m-tolyl)imidazolidin-2-one]
The IC50 of the first is higher: 10 to 50 µM for the first, less than 1 µM for the second. The second is the more potent here.

`CCCCOc1ccc(C2(O)C(=O)N(c3ccc(Br)cc3)C(=O)N2c2ccc(Br)cc2)cc1` (stereo not shown) [Example 182, 1,3-bis(4-bromophenyl)-5-(4-butoxyphenyl)-5-hydroxyimidazolidine-2,4-dione] and `COc1ccc(C2(O)C(=O)N(c3ccc(Br)cc3)C(=O)N2c2ccc(Br)cc2)nc1` (stereo not shown) [Example 208, 1,3-bis(4-bromophenyl)-5-hydroxy-5-(5-methoxypyridin-2-yl)imidazolidine-2,4-dione] cannot be ordered by IC50: greater than 50 µM for the first, 50 to 100 µM for the second.

`CC[C@H]1N(c2ccc(Cl)cc2)C(=O)N(c2ccc(Cl)cc2)C1(O)c1cccc(OC(F)F)c1` (stereo partly drawn) [Compound 118-2, (5R)-1,3-bis(4-chlorophenyl)-4-(3-(difluoromethoxy)phenyl)-5-ethyl-4-hydroxyimidazolidin-2-one] and `CC[C@H]1N(c2ccc(Cl)cc2)C(=O)N(c2ccc(Cl)cc2)C1(O)c1cccc(Cl)c1` (stereo partly drawn) [Compound 81-2, (5R)-4-(3-chlorophenyl)-1,3-bis(4-chlorophenyl)-5-ethyl-4-hydroxyimidazolidin-2-one] cannot be ordered by IC50: less than 1 µM for the first, less than 1 µM for the second.

`CCCCCCCCC1(O)C(=O)N(c2ccc(Br)cc2)C(=O)N1c1ccc(Br)cc1` (stereo not shown) [Example 199, 1,3-bis(4-bromophenyl)-5-hydroxy-5-octylimidazolidine-2,4-dione] and `O=C1N(c2ccc(Br)cc2)C(=O)C(O)(C(F)(F)F)N1c1ccc(Br)cc1` (stereo not shown) [Example 216, 1,3-bis(4-bromophenyl)-5-hydroxy-5-(trifluoromethyl)imidazolidine-2,4-dione] cannot be ordered by IC50: greater than 50 µM for the first, greater than 50 µM for the second.

`N#Cc1cccc(-c2c(C3CC3)n(-c3ccc(Cl)cc3)c(=O)n2-c2ccc(Cl)cc2)c1` [Example 48, 3-(1,3-bis(4-chlorophenyl)-5-cyclopropyl-2-oxo-2,3-dihydro-1H-imidazol-4-yl)benzonitrile] and `CC1(C)N(c2ccc(Cl)cc2)C(=O)N(c2ccc(Cl)cc2)C1(O)c1cccc(C#N)c1` (stereo not shown) [Compound 138, 3-(1,3-bis(4-chlorophenyl)-4-hydroxy-5,5-dimethyl-2-oxoimidazolidin-4-yl)benzonitrile] cannot be ordered by IC50: less than 1 µM for the first, less than 1 µM for the second.

`COC[C@@H]1N(c2ccc(Cl)cc2)C(=O)N(c2ccc(Cl)cc2)C1(O)c1cccc(C(F)(F)F)c1` (stereo partly drawn) [Compound 92-1, (5S)-1,3-bis(4-chlorophenyl)-4-hydroxy-5-(methoxymethyl)-4-(3-(trifluoromethyl)phenyl)imidazolidin-2-one] and `CC[C@H]1N(c2ccc(Cl)cc2)C(=O)N(c2ccc(Cl)cc2)C1(O)c1cccc(C(F)(F)F)c1` (stereo partly drawn) [Compound 80-2, (5R)-1,3-bis(4-chlorophenyl)-5-ethyl-4-hydroxy-4-(3-(trifluoromethyl)phenyl)imidazolidin-2-one] cannot be ordered by IC50: less than 1 µM for the first, less than 1 µM for the second.

`O=C1N(c2ccc(Cl)cc2)CC(O)(c2cccc(C3CC3)c2)N1c1ccc(Cl)cc1` (stereo not shown) [Compound 78, 1,3-bis(4-chlorophenyl)-4-(3-cyclopropylphenyl)-4-hydroxyimidazolidin-2-one] and `O=C1N(c2ccc(Cl)cc2)CC(O)(c2cccc(F)c2)N1c1ccc(Cl)cc1` (stereo not shown) [Compound 64, 1,3-bis(4-chlorophenyl)-4-(3-fluorophenyl)-4-hydroxyimidazolidin-2-one] fall in the same range of IC50: 1 to 10 µM for the first, 1 to 10 µM for the second.

`C[C@@H]1N(c2ccc(Cl)cc2)C(=O)N(c2ccc(Cl)cc2)C1(O)c1cccc(C#N)c1` (single isomer, unassigned) [Compound 99-1] and `C[C@H]1N(c2ccc(Cl)cc2)C(=O)N(c2ccc(Cl)cc2)C1(O)c1cccc(Cl)c1` (single isomer, unassigned) [Compound 62-2] cannot be ordered by IC50: less than 1 µM for the first, less than 1 µM for the second.

`O=C1N(c2ccc(Br)cc2)C(=O)C(O)(c2cccc3ccccc23)N1c1ccc(Br)cc1` (stereo not shown) [Example 195, 1,3-bis(4-bromophenyl)-5-hydroxy-5-(naphthalen-1-yl)imidazolidine-2,4-dione] and `O=C1N(c2ccc(Br)cc2)C(=O)C(O)(c2ccc3ccccc3c2)N1c1ccc(Br)cc1` (stereo not shown) [Compound 148, 1,3-bis(4-bromophenyl)-5-hydroxy-5-(naphthalen-2-yl)imidazolidine-2,4-dione] cannot be ordered by IC50: greater than 50 µM for the first, 50 to 100 µM for the second.

First: CC[C@@]1(C)N(c2ccc(Cl)cc2)C(=O)N(c2ccc(Cl)cc2)C1(O)c1cccc(OC(F)(F)F)c1 (single isomer, unassigned) [Example 163-1]
Second: CCc1cccc(C2(O)[C@H](C)N(c3ccc(Cl)cc3)C(=O)N2c2ccc(Cl)cc2)c1 (stereo partly drawn) [Compound 69-1, (5S)-1,3-bis(4-chlorophenyl)-4-(3-ethylphenyl)-4-hydroxy-5-methylimidazolidin-2-one]
The IC50 of the first is higher: 1 to 10 µM for the first, less than 1 µM for the second.

First: CCC[C@H]1N(c2ccc(Br)cc2)C(=O)N(c2ccc(Br)cc2)C1(O)c1cccc(OC(F)(F)F)c1 (stereo partly drawn) [Compound 112-2, (5R)-1,3-bis(4-bromophenyl)-4-hydroxy-5-propyl-4-(3-(trifluoromethoxy)phenyl)imidazolidin-2-one]
Second: CCC1(O)C(c2ccccc2)N(c2ccc(Br)cc2)C(=O)N1c1ccc(Br)cc1 (stereo not shown) [Example 45]
The IC50 of the first is lower: less than 1 µM for the first, 1 to 10 µM for the second.

First: O=C1N(c2ccc(Cl)cc2)C(=O)C(O)(c2ccc(Cl)cc2)N1c1ccc(Cl)cc1 (stereo not shown) [Compound 154, 1,3,5-tris(4-chlorophenyl)-5-hydroxyimidazolidine-2,4-dione]
Second: CC(=O)c1cccc(C2(O)C(C)N(c3ccc(Cl)cc3)C(=O)N2c2ccc(Cl)cc2)c1 (stereo not shown) [Compound 124, 4-(3-acetylphenyl)-1,3-bis(4-chlorophenyl)-4-hydroxy-5-methylimidazolidin-2-one]
The IC50 of the first is higher: 50 to 100 µM for the first, less than 1 µM for the second.

`CC(=O)c1cccc(C2(O)[C@H](C)N(c3ccc(Cl)cc3)C(=O)N2c2ccc(Cl)cc2)c1` (single isomer, unassigned) [Compound 136-1] and `C[C@]1(c2ccccc2)N(c2ccc(Cl)cc2)C(=O)N(c2ccc(Cl)cc2)[C@@]1(O)c1ccccc1` [Compound 121-4, (4R,5R)-1,3-bis(4-chlorophenyl)-4-hydroxy-5-methyl-4,5-diphenylimidazolidin-2-one] fall in the same range of IC50: 1 to 10 µM for the first, 1 to 10 µM for the second.
